Laboratory results as given in ChEMBL document CHEMBL2311410, “Facile regioselective synthesis of novel bioactive thiazolyl-pyrazoline derivatives via a three-component reaction and their antimicrobial activity” (2013).

Columns and labels:
Type in all cases: functional
Pseudomonas aeruginosa = assay: Antimicrobial activity against Pseudomonas aeruginosa ATCC 27853 assessed as zone of inhibition after 24 hrs by agar well-diffusion method
Staphylococcus aureus = assay: Antimicrobial activity against Staphylococcus aureus ATCC 29213 assessed as zone of inhibition after 24 hrs by agar well-diffusion method
Escherichia coli = assay: Antimicrobial activity against Escherichia coli ATCC 25922 assessed as zone of inhibition after 24 hrs by agar well-diffusion method

Compound | inhibition zone (IZ) (Pseudomonas aeruginosa) | inhibition zone (IZ) (Staphylococcus aureus) | inhibition zone (IZ) (Escherichia coli)
COc1ccc(C2C3CCc4ccccc4C3=NN2c2nc(-c3ccccc3)cs2)cc1 (configuration not stated) | 9 mm | 8 mm | –
Clc1ccc(C2C3CCc4ccccc4C3=NN2c2nc(-c3ccccc3)cs2)cc1 (configuration not stated) | 9 mm | – | 7 mm
GENTAMICIN | 21 mm | 23 mm | 22 mm
COc1ccc(C2=NN(c3nc(-c4ccccc4)cs3)C(c3ccc(OC)cc3)C2)cc1 (configuration not stated) | 18 mm | – | 8 mm
c1ccc(C2=NN(c3nc(-c4ccccc4)cs3)C(c3cccs3)C2)cc1 (configuration not stated) | 19 mm | 9 mm | –
COc1ccc(C2=NN(c3nc(-c4ccccc4)cs3)C(c3ccc(C)cc3)C2)cc1 (configuration not stated) | 17 mm | 7 mm | –
Cc1ccc(C2=NN(c3nc(-c4ccccc4)cs3)C(c3ccc(C)cc3)C2)cc1 (configuration not stated) | 16 mm | 7 mm | 7 mm
c1ccc(-c2csc(N3N=C4c5ccccc5CCC4C3c3cccs3)n2)cc1 (configuration not stated) | 16 mm | – | 8 mm
COc1ccc(C2CC(c3ccccc3)=NN2c2nc(-c3ccccc3)cs2)cc1 (configuration not stated) | 7 mm | 6 mm | –
COc1ccc(C2CC(c3ccc(C)cc3)=NN2c2nc(-c3ccccc3)cs2)cc1 (configuration not stated) | 19 mm | – | 7 mm
